{"source": "paper PMC10077692", "about": "“Phytochemical profile, comparative evaluation of Satureja montana alcoholic extract for antioxidants, anti-inflammatory and molecular docking studies” (BMC Complementary Medicine and Therapies, 2023)", "tested_on": "MDA", "test": "In-vitro antioxidant assay, MDA", "format": "biochemical", "procedure": "The enzymatic assays of COXs, LOX, TAC, Catalase, MDA, GSH, SOD, TNF -α, and MPO were determined colorimetrically as mentioned previously in reports.\nMicrosoft Excel 2010 program. All the data in Table 4 was represented as mean ± SD [23].\nTotal antioxidant capacity is the measure of the number of free radicals scavenged by a test solution, being used to evaluate the antioxidant capacity of biological samples. […] The standard ascorbic acid results were (19.7, 17.2 and 13.1 IU/ml) for TAC, Catalase and SOD, respectively.", "data": [{"smiles": "O=C1O[C@H]([C@@H](O)CO)C(O)=C1O", "note": "[ascorbic acid]", "values": [{"measurement": "MDA level", "result": 15.3, "unit": "µg/mL"}]}]}
